PubChem BioAssay AID2060507 (Molecular Pharmacology Branch, DTP, NCI, 2025)

Test system: 519858-162-T-J1-PDC complex spheroid viability
Experiment: Anticancer human tumor 519858-162-T-J1-PDC patient-derived colon adenocarcinoma cell line growth inhibition [GQUAD]
Conditions: for IC50: curve of first compound; for viability, T/C: stronger effect = lower value
Outline: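 Viability of tumor cells grown as complex spheroids with endothelial and stromal cells, exposed to drug combinations. Top concentration at or near clinical Cmax (else 10 microM), diluted in half-log increments.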

[1] = second compound 0.0316 µM, first compound 0.0316 µM
[2] = second compound 0.0316 µM, first compound 0.1 µM
[3] = second compound 0.0316 µM, first compound 0.316 µM
[4] = second compound 0.0316 µM, first compound 1 µM
[5] = second compound 0.0316 µM, first compound 3.16 µM
[6] = second compound 0.0316 µM, first compound 10 µM
[7] = second compound 0.1 µM, first compound 0.0316 µM
[8] = second compound 0.1 µM, first compound 0.1 µM
[9] = second compound 0.1 µM, first compound 0.316 µM
[10] = second compound 0.1 µM, first compound 1 µM
[11] = second compound 0.1 µM, first compound 3.16 µM
[12] = second compound 0.1 µM, first compound 10 µM
[13] = second compound 0.316 µM, first compound 0.0316 µM
[14] = second compound 0.316 µM, first compound 0.1 µM
[15] = second compound 0.316 µM, first compound 0.316 µM
[16] = second compound 0.316 µM, first compound 1 µM
[17] = second compound 0.316 µM, first compound 3.16 µM
[18] = second compound 0.316 µM, first compound 10 µM
[19] = second compound 1 µM, first compound 0.0316 µM
[20] = second compound 1 µM, first compound 0.1 µM
[21] = second compound 1 µM, first compound 0.316 µM
[22] = second compound 1 µM, first compound 1 µM
[23] = second compound 1 µM, first compound 3.16 µM
[24] = second compound 1 µM, first compound 10 µM
[25] = second compound 3.16 µM, first compound 0.0316 µM
[26] = second compound 3.16 µM, first compound 0.1 µM
[27] = second compound 3.16 µM, first compound 0.316 µM
[28] = second compound 3.16 µM, first compound 1 µM
[29] = second compound 3.16 µM, first compound 3.16 µM
[30] = second compound 3.16 µM, first compound 10 µM
[31] = second compound 10 µM, first compound 0.0316 µM
[32] = second compound 10 µM, first compound 0.1 µM
[33] = second compound 10 µM, first compound 0.316 µM
[34] = second compound 10 µM, first compound 1 µM
[35] = second compound 10 µM, first compound 3.16 µM
[36] = second compound 10 µM, first compound 10 µM
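Wherever viability, T/C is given: 100% = DMSO vehicle control viability.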

Question: For `CC1COCCN1c1cc(-c2ccnn2C)c2ccnc(-c3ccn[nH]3)c2n1` (centres undefined) + Cc1cnc(CNC(=O)c2c(=O)c3ccc(N4CCCN(C)CC4)nc3n3c2sc2ccccc23)cn1, which IC50 (second compound 0.0316 µM) is on record?
Answer: Its IC50 is 1540 nM.

Question: What about the IC50 (second compound 0.1 µM) of the same compound?
Answer: The IC50 was 1720 nM.

Question: And the IC50 (second compound 0.316 µM)?
Answer: The IC50 was 173 nM.

Question: And the IC50 (second compound 1 µM)?
Answer: Its IC50 is 232 nM.

Question: And the IC50 (second compound 3.16 µM)?
Answer: Its IC50 is < 31.6 nM.

Question: And the IC50 (second compound 10 µM)?
Answer: The IC50 was < 31.6 nM.

Question: And the viability, T/C [1]?
Answer: Its viability, T/C is 98%.

Question: What about the viability, T/C [2] of the same compound?
Answer: The viability, T/C was 58.7%.

Question: What about the viability, T/C [3] of the same compound?
Answer: Its viability, T/C is 77.4%.

Question: What about the viability, T/C [4] of the same compound?
Answer: The viability, T/C was 60.4%.

Question: What about the viability, T/C [5] of the same compound?
Answer: The viability, T/C was 38.9%.

Question: What about the viability, T/C [6] of the same compound?
Answer: The viability, T/C was 24.4%.

Question: And the viability, T/C [7]?
Answer: Its viability, T/C is 58.7%.

Question: And the viability, T/C [8]?
Answer: The viability, T/C was 82.7%.

Question: And the viability, T/C [9]?
Answer: The viability, T/C was 95.9%.

Question: What about the viability, T/C [10] of the same compound?
Answer: The viability, T/C was 67.7%.

Question: And the viability, T/C [11]?
Answer: The viability, T/C was 29.1%.

Question: And the viability, T/C [12]?
Answer: The viability, T/C was 30.9%.

Question: And the viability, T/C [13]?
Answer: The viability, T/C was 112%.

Question: What about the viability, T/C [14] of the same compound?
Answer: Its viability, T/C is 52.6%.

Question: What about the viability, T/C [15] of the same compound?
Answer: The viability, T/C was 49.8%.

Question: What about the viability, T/C [16] of the same compound?
Answer: Its viability, T/C is 44.2%.

Question: And the viability, T/C [17]?
Answer: Its viability, T/C is 28.3%.

Question: What about the viability, T/C [18] of the same compound?
Answer: Its viability, T/C is 36.6%.

Question: And the viability, T/C [19]?
Answer: Its viability, T/C is 57.7%.

Question: What about the viability, T/C [20] of the same compound?
Answer: The viability, T/C was 62.4%.

Question: What about the viability, T/C [21] of the same compound?
Answer: The viability, T/C was 43.1%.

Question: And the viability, T/C [22]?
Answer: The viability, T/C was 38.1%.

Question: And the viability, T/C [23]?
Answer: The viability, T/C was 28.2%.

Question: And the viability, T/C [24]?
Answer: Its viability, T/C is 26.2%.

Question: What about the viability, T/C [25] of the same compound?
Answer: The viability, T/C was 44.2%.

Question: What about the viability, T/C [26] of the same compound?
Answer: The viability, T/C was 33%.

Question: What about the viability, T/C [27] of the same compound?
Answer: Its viability, T/C is 37.4%.

Question: And the viability, T/C [28]?
Answer: The viability, T/C was 37.9%.

Question: What about the viability, T/C [29] of the same compound?
Answer: Its viability, T/C is 42.9%.

Question: And the viability, T/C [30]?
Answer: The viability, T/C was 29.8%.

Question: What about the viability, T/C [31] of the same compound?
Answer: Its viability, T/C is 45.6%.

Question: What about the viability, T/C [32] of the same compound?
Answer: Its viability, T/C is 41.2%.

Question: And the viability, T/C [33]?
Answer: The viability, T/C was 26.7%.

Question: And the viability, T/C [34]?
Answer: Its viability, T/C is 29.1%.

Question: What about the viability, T/C [35] of the same compound?
Answer: The viability, T/C was 28.8%.

Question: What about the viability, T/C [36] of the same compound?
Answer: The viability, T/C was 32.5%.

Question: Which results are given for `CC1COCCN1c1cc(C2(S(C)(=N)=O)CC2)nc(-c2ccnc3[nH]ccc23)n1` (centres undefined) + Cc1cnc(CNC(=O)c2c(=O)c3ccc(N4CCCN(C)CC4)nc3n3c2sc2ccccc23)cn1?
Answer: IC50 (second compound 0.0316 µM): 10000 nM; IC50 (second compound 0.1 µM): > 10000 nM; IC50 (second compound 0.316 µM): > 10000 nM; IC50 (second compound 1 µM): > 10000 nM; IC50 (second compound 3.16 µM): < 31.6 nM; IC50 (second compound 10 µM): < 31.6 nM; viability, T/C [1]: 90.9%; viability, T/C [2]: 84.6%; viability, T/C [3]: 89%; viability, T/C [4]: 98.5%; viability, T/C [5]: 48%; viability, T/C [6]: 67.8%; viability, T/C [7]: 114%; viability, T/C [8]: 91.3%; viability, T/C [9]: 84.3%; viability, T/C [10]: 59.8%; viability, T/C [11]: 55.2%; viability, T/C [12]: 78.5%; viability, T/C [13]: 79.3%; viability, T/C [14]: 92.8%; viability, T/C [15]: 67.8%; viability, T/C [16]: 82.6%; viability, T/C [17]: 79.3%; viability, T/C [18]: 66.6%; viability, T/C [19]: 48.6%; viability, T/C [20]: 57.5%; viability, T/C [21]: 74.4%; viability, T/C [22]: 44.8%; viability, T/C [23]: 48.2%; viability, T/C [24]: 57.7%; viability, T/C [25]: 35.9%; viability, T/C [26]: 39%; viability, T/C [27]: 45.5%; viability, T/C [28]: 56.4%; viability, T/C [29]: 51.4%; viability, T/C [30]: 51.1%; viability, T/C [31]: 46%; viability, T/C [32]: 35.6%; viability, T/C [33]: 62.2%; viability, T/C [34]: 41%; viability, T/C [35]: 58.8%; viability, T/C [36]: 37.4%
